Experimental data: publication PMC7062083, “Metabolite identification, tissue distribution, excretion and preclinical pharmacokinetic studies of ET-26-HCl, a new analogue of etomidate” (Royal Society Open Science, 2020)
Entries after “also recorded” stand apart in the source; their conditions may differ.

Tests used:
[1] = Stability in beagle plasma (LC-MS/MS); format: in vitro ADME
Experimental: (§1) Concentrations of ET-26-HCl and ET-26-acid in biological samples were determined by liquid chromatography–tandem mass spectrometry (LC–MS/MS) after deproteinization with methanol. The bioanalytical method for simultaneous quantification of ET-26-HCl and ET-26-acid in the different matrix was fully validated according to FDA guidelines (electronic supplementary material, figure S1 and tables S1 and S2) in our previous study. Briefly, a 100 µl sample (plasma, tissue homogenate, bile, urine and faeces suspension) were spiked with 20 µl of IS solution and vortexed for 30 s. The mixture was then processed for protein precipitation with 300 µl methanol, followed by centrifugation at 12 000 r.p.m. for 5 min. Supernatant was collected and analysed by LC–MS/MS system.

[2] = Tissue distribution in Sprague Dawley rats; format: in vivo; details: i.v. 4.2 mg kg^−1 ET-26-HCl
Experimental: as §1
Sprague Dawley (SD) rats (200–240 g) were provided by the Animal Facility at Sichuan University (Chengdu, China). All rats received a single 4.2 mg kg^−1 dose of ET-26-HCl intravenously. Rats were sacrificed and tissues, including heart, spleen, lung, intestine, colon, kidney, brain, fat, stomach, liver, muscle, testis and ovary were collected at 0, 1, 3, 6 and 10 h post-dosing (six rats/time-point). Tissue samples were rinsed thrice in ice cold saline, and blotted dry with filter papers. Weighed amount of tissues were homogenized in normal saline (thrice the tissue weight, w/v) and homogenates were stored at −80°C until analysis.

[3] = Excretion (urine, faeces, bile) in Sprague Dawley rats; format: in vivo
Experimental: as §1
SD rats (4 male and 4 female) received 4.2 mg kg^−1 of ET-26-HCl intravenously and were housed in metabolic cages. Urine and faeces from the treated rats were collected between 0–6, 6–12, 12–24, 24–30, 30–36 and 36–48 h post-dosing. Urine volume and faeces weight were measured and recorded.
Bile fistulas of SD rats (four male and four female) were cannulated with polyethylene tube (Instech Laboratories, Inc., USA) and bile was collected at the following time-points: 0–3, 3–6, 6–9, 9–12 and 12–24 h post-dosing. The volume of the collected bile was measured and stored at −80°C until analysis.

[4] = Pharmacokinetics in beagle dogs after intravenous administration; format: in vivo; details: beagle dogs after i.v. ET-26-HCl
Experimental: as §1
The LC–MS/MS was performed as described previously. Briefly, ET-26-HCl, ET-26-acid and GBP were separated using a CAPCELL PAK C18 column (50 × 2.00 mm, 5.00 µm) as well as a Security Guard Cartridge (C18, 4 mm × 3.00 mm i.d., Phenomenex). The mobile phase consisting of 0.3% formic acid water (A), and methanol (B) was pumped at a flow rate of 0.6 ml min^−1. The gradient elution was achieved according to the following protocol: 0 min to about 0.50 min, A/B (41/9, v/v); 0.51 min to about 1.5 min, A/B (1/9, v/v); and 1.51 min to about 2.00 min, A/B ([…], v/v). Mass spectrometry was conducted on an API 3000 mass spectrometer (Sciex, Framingham, MA, USA) equipped with an electrospray ionization (ESI) source operating in positive mode. The MS/MS system was in the multiple reaction monitoring (MRM) mode, using the m/z transitions of 275.6/170.9 for ET-26-HCl, 217.7/113.1 for ET-26-acid and 172.5/154.3 for GBP (IS), respectively. The API 3000 mass parameters were set according to the following protocol: curtain gas, 6 psi; collision gas, 8 psi; nebulizer, 4 psi; ion spray voltage, 3000 V and ion source temperature, 450°C. The autosampler was conditioned at 4°C, and the injection volume was 5 µl. The linear ranges of this analytical method for ET-26-HCl and for ET-26-acid from all biological samples are shown in electronic supplementary material, table S3.
Beagle dogs, weighing 9–11 kg, were purchased from Sichuan Industrial of Antibiotics, China National Pharmaceutical Group Corporation (Chengdu, China). A 3 × 3 crossover experimental design with 24 beagles (equal number of male and female dogs) randomly divided into six groups was conducted. Beagle dogs in the six groups received three doses of ET-26-HCl: 1.045 mg kg^−1, 2.090 mg kg^−1 and 4.180 mg kg^−1 as low (L), medium (M) and high (H) dose. Blood samples (2 ml) were collected from the elbow vein in 4 ml heparinized tubes before dosing, and at 1, 3, 5, 10, 20, 30, 120 and 180 min post-dosing. All blood samples were centrifuged at 8000 r.p.m. for 10 min and plasma collected and stored at −80°C until analysis.
All calculations were performed on Microsoft Excel 2016 (Microsoft Co., USA). The Drug and Statistics 3.2.7 (DAS 3.2.7) software package (Mathematical Pharmacology Professional Committee of China, China) was used to acquire the main pharmacokinetic parameters of ET-26-HCl. All data were shown as mean ± standard deviation (s.d.). Statistical significances were calculated by one-way analysis of variance (ANOVA).

[5] = rats, i.v. ET-26-HCl; cited from earlier work
[6] = Identification of major metabolites in liver microsomes (UPLC-Q-TOF-MS); format: in vitro ADME, mouse, rat, beagle dog, monkey and human; details: 10 µM ET-26-HCl, 1 mg ml^−1 liver microsomes, NADPH, 1 h
Experimental: The major metabolites of ET-26-HCl in liver microsomes from mouse, rat, beagle dog, monkey and human were determined by the UPLC-Q-TOF-MS system.
Reaction mixture containing 10 µM ET-26-HCl, […] MgCl2 and 1 mg ml^−1 liver microsomes in Tris-HCl phosphate buffer (pH 7.4) was pre-incubated for 6 min at 37°C, followed by the addition of NADPH. After incubation for 1 h, methanol was added to stop the reaction. Samples were centrifuged at 11 000 r.p.m. for 5 min; supernatants were collected and air dried at 40°C. Residues were dissolved in 100 µl acetonitrile/water (1:1, v/v) and analysed by the UPLC-Q-TOF-MS.
The UPLC-Q-OF-MS system was equipped with a Waters Synapt G2-Si quadrupole time-of-flight mass spectrometer (Q-TOF-MS), an ESI source and an ACQUITY UPLC H-CLASS liquid chromatography system. The chromatographic separations were achieved on an ACQUITY UPLC BEH C18 column (2.1 × 100 mm, i.d. 1.7 µm, Waters, USA) kept at 45°C and a flow rate of 0.4 ml min^−1. The mobile phase consisted of 5 mM ammonium acetate with 0.1% formic acid (A) and acetonitrile with 0.1% formic acid (B). The optimized gradient elution programme followed was 0 min to 2.1 min, A/B (19/1, v/v); 2.1 min to 7.3 min, A/B (1/4, v/v); 7.3 min to 8.0 min, A/B (1/9, v/v); and 8.0 min to 10 min, A/B (19/1, v/v). The injection volume was 5 µl. The mass experiment was operated in positive ion modes under the following parameters: turbo spray temperature, 120°C; ion spray voltage, 3.0 kV. Nitrogen was used as the nebulizer and the auxiliary gas; meanwhile, the nebulizer gas was set to 650 l h^−1 and kept at 350°C. The collision energy was set at 5–10 V and the collision energy spread was 4–6 V. TOF-MS was scanned with the mass range of m/z 50–600 with 200 ms accumulation time. A 400 ng ml^−1 leu-enkephalin (m/z 556.2771) was selected as an external standard for mass–charge ratio correction at a flow rate of 5 µl min^−1.

[7] = i.v. ET-26-HCl 4.2 mg kg^−1, collected to 48 h

Compound | Measured concentration (Mean ± SD) ([1]; 4◦C for 3 h, nominal 38.24 ng/mL) [ng/mL] | Measured concentration (Mean ± SD) ([1]; 4◦C for 3 h, nominal 3186 ng/mL) [ng/mL] | Measured concentration (Mean ± SD) ([1]; Freeze and Thaw Cycle (3), nominal 38.24 ng/mL) [ng/mL] | Measured concentration (Mean ± SD) ([1]; Freeze and Thaw Cycle (3), nominal 3186 ng/mL) [ng/mL] | Measured concentration (Mean ± SD) ([1]; Room temperature 3 h, nominal 38.24 ng/mL) [ng/mL] | Measured concentration (Mean ± SD) ([1]; Room temperature 3 h, nominal 3186 ng/mL) [ng/mL] | Measured concentration (Mean ± SD) ([1]; –80 ◦C for 30 days, nominal 38.24 ng/mL) [ng/mL] | Measured concentration (Mean ± SD) ([1]; –80 ◦C for 30 days, nominal 3186 ng/mL) [ng/mL] | time for clearance from tissues [2] | tissues with the highest concentration [2] | accumulative excretion through bile ([3]; i.v. ET-26-HCl 4.2 mg kg^−1, bile collected to 24 h) [%] | accumulative excretion through faeces [3, 7] [%] | accumulative excretion through urine [3, 7] [%] | plasma concentration of ET-26-acid (in words) [4] | plasma exposure of metabolite relative to parent (in words) [5] | source (liver microsomes) in which detected [6]
C[C@H](c1ccccc1)n1cncc1C(=O)O [ET-26-acid] | 39.92 ± 2.904 | 2890 ± 174.8 | 36.23 ± 2.568 | 2770 ± 157.7 | 38.29 ± 4.088 | 2890 ± 117.6 | 35.84 ± 1.899 | 3049 ± 391.4 | around 3 h | plasma and liver | 0.027 | 0.080 | 12.49 | almost non-detectable; also recorded: almost undetectable | higher plasma exposure than the parent drug | 
C[C@H](c1ccccc1)n1cncc1C(=O)OCCO [M2] |  |  |  |  |  |  |  |  |  |  |  |  |  |  |  | every liver microsomal preparation; also recorded: human, monkey, dog, rat, mouse
